In US12480163B2, “Compositions and methods for identification assessment, prevention, and treatment of Ewing sarcoma using TP53 dependency biomarkers and modulators” (Dana-Farber Cancer Institute, Inc., priority 2018, dated 2025):
“Also recorded” adds a separate entry of the source.

Experiments:
[1] = system: MDM2, p53, and p21 protein levels; assay: Western immunoblotting of MDM2, p53, p21 in TP53 wild-type Ewing sarcoma cell lines; type: cell-based
Procedure: (§1) Whole-cell lysates were extracted in cell lysis buffer (Cell Signaling) supplemented with EDTA-free protease inhibitors and PhosSTOP™ phosphatase inhibitors (Roche). Western immunoblotting was performed using standard techniques. Primary antibodies used included anti-MDM2 (ab178938; Abcam), anti-MDM2 (86934; Cell Signaling), anti-MDM4 (A300-287A; Bethyl Laboratories), anti-p53 (2527S; Cell Signaling), anti-p21 (2946S; Cell Signaling), anti-Vinculin (18058; Abcam), anti-Wip1 (A300-664A; Bethyl Laboratories), anti-pSer15-p53 (9284; Cell Signaling), anti-USP7 (A300-033A; Bethyl Laboratories), and anti-Tubulin (cp06; CalBiochem).

[2] = biological target: T1, Wip1 (Homo sapiens, UniProt O15297); assay: Western immunoblotting of Wip1 and pSer15-p53; type: cell-based; settings: TC32 and CHLA258 cells, 2 d
T1 construct: Whole-cell lysates were extracted in cell lysis buffer (Cell Signaling); endogenous in cells; host or cells: TP53 wild-type Ewing sarcoma cell lines
T1 sequence (O15297 1-605): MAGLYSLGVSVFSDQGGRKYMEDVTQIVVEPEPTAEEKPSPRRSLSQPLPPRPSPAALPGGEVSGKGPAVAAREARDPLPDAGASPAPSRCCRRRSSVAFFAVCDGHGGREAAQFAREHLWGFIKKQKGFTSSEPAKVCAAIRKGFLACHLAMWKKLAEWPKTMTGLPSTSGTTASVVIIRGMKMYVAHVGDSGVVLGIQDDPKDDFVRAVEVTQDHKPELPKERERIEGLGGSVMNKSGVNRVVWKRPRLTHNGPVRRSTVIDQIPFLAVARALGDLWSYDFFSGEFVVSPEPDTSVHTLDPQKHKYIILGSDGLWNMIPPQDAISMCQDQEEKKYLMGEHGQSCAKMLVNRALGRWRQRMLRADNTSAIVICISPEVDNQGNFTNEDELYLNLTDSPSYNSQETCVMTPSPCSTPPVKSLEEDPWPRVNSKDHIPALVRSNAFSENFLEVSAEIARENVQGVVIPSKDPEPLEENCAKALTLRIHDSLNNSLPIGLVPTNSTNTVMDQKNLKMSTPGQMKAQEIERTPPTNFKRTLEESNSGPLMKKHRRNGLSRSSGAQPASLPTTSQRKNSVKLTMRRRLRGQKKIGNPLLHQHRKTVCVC
Procedure: as §1

[3] = system: TC32 xenograft tumors; assay: TC32 Ewing sarcoma xenograft anti-tumor efficacy study; type: in vivo, mice; settings: 30 mg/kg IV every other day for 20 d (10 doses) vs vehicle
Procedure: (§2) j. Ewing Sarcoma Xenograft Studies
(§3) For anti-tumor efficacy studies, tumor xenografts were established in 15 nude female mice by implanting three million TC32 cells into the right flank. Animals were randomized to either 20 d of treatment with 30 mg/kg q.o.d. IV ATSP-7041 (n=8) or vehicle (n=7) for a total of 10 doses. Treatment was started when tumors reached 100-200 mm3. Tumor volumes were measured with calipers twice a week. For PDX studies, tumor fragments were implanted into the right flank of nude female mice by minor surgery. After tumor engraftment, studies were performed as described for TC32 xenograft studies.
(§4) For in vivo studies, ATSP-7041 was prepared using the following protocol: mPEG-DSPE (Nanocs) was dissolved in chloroform and dried by a rotary evaporator. ATSP-7041 was dissolved in 1 M NaOH and diluted 100-fold in 10 mM histidine-buffered saline to a final concentration of 3 mg/ml. This mixture was added to the dried lipid film to a final mPEG-DSPE concentration of 50 mg/ml and final pH 7. The film was rehydrated by brief sonication and heating in a 50° C. water bath. The mixture was then subjected to five freeze-thaw cycles in liquid nitrogen and 40° C. water, respectively, and the solution passed 10 times through an Avanti Mini-Extruder Set (Avanti Polar Lipids) equipped with a 800-nm filter (Whatman).

[4] = system: PDX tumors (HSJD-ES-002); assay: Ewing sarcoma PDX (HSJD-ES-002) anti-tumor efficacy study; type: in vivo, mice
Procedure: as §2, §3, §4

[5] = system: TC32 xenograft tumor tissues; assay: Pharmacodynamics study in TC32 xenograft tumor tissue (Western blot, quantitative PCR); type: in vivo, mice; settings: three doses 30 mg/kg IV q.o.d., 8 h after last dose
Procedure: as §1
(§5) RNA was extracted from cells with the RNeasy® kit and on-column DNA digestion (Qiagen). cDNA was prepared using M-MLV reverse transcription (ThermoFisher Scientific). TaqMan™ Gene Expression Master Mix (Applied Biosystems) was used per the manufacturer's protocol. TaqMan™ probes included RPL13A (Hs04194366_g1; ThermoFisher Scientific), CDKNIA (Hs00355782_m1; Thermo Fisher Scientific), and MDM2 (Hs01066930_m1; ThermoFisher Scientific). Data were collected in triplicate and analyzed using the ΔΔCT method.
(§6) For pharmacodynamics studies, tumor xenografts were established in six nude female mice by implanting three million TC32 cells or PDX tumor fragments into the right flank. Animals were randomized to either ATSP-7041 (n=3) or vehicle treatment (n=3). […]

[6] = system: PDX tumor tissues; assay: Pharmacodynamics study in PDX tumor tissue (Western blot, quantitative PCR); type: in vivo, mice; settings: PDX HSJD-ES-002, three doses 30 mg/kg q.o.d.
Procedure: as §1, §5, §6

## CC(=O)N[C@@H](CC(C)C)C(=O)N[C@H](C(=O)N[C@@H](Cc1ccccc1)C(=O)N[C@]1(C)CCCCCCC=CCCC[C@@](C)(C(=O)N[C@@H](CO)C(=O)N[C@@H](C)C(=O)N[C@@H](C)C(N)=O)NC(=O)[C@H](CC2CCC2)NC(=O)[C@H](CCC(N)=O)NC(=O)[C@H](C)NC(=O)[C@H](Cc2c[nH]c3ccccc23)NC(=O)[C@H](Cc2ccc(O)cc2)NC(=O)[C@H](CCC(=O)O)NC1=O)[C@@H](C)O [ATSP-7041, Ac-Leu17-Thr-Phe-cyclo(R8-Glu-Tyr-Trp-Ala-Gln-Cba-S5)-Ser-Ala-Ala30-NH2]
[1]; TC32 cells, 2 d
  p53 protein levels, combination of ATSP-7041 and doxorubicin: greatly increased p53 protein levels
  p53 protein levels, combination of ATSP-7041 and etoposide: greatly increased p53 protein levels
  p53 protein levels, combination of ATSP-7041 and vincristine: greatly increased p53 protein levels
[1]; TP53 wild-type Ewing sarcoma cell lines, Western blot
  MDM2, p53, and p21 protein levels: increased protein levels of MDM2, p53, and p21; also recorded: Concentration-dependent increases
[2]
  phosphorylation of p53 at Serine 15, combination of ATSP-7041 and GSK2830371: increased phospho-Serine15-p53 protein levels; also recorded: increased the phosphorylation of p53 at Serine 15; also recorded: increases the level of pSer15 on p53 more than with either molecule alone
[3]
  tumor growth (normalized tumor volume): significantly suppressed tumor growth
[4]; PDX HSJD-ES-002, 10 doses 30 mg/kg q.o.d. vs vehicle
  survival of mice: significantly extended
[4]; PDX HSJD-ES-002, 10 doses 30 mg/kg q.o.d. vs vehicle, 30 mg/kg
  tumor growth (normalized tumor volume): slowed significantly; also recorded: slowed in all mice
[4]; PDX HSJD-ES-002, one mouse of n=8, observed time frame of 227 d
  complete tumor regression: complete tumor regression without recurrence; also recorded: one out of eight mice achieved complete and sustained remission of disease
[5]
  MDM2, p53, and p21 protein levels in tumor tissue: increase of MDM2, p53, and p21 protein levels; also recorded: increase in MDM2, p53, and p21 protein levels
[5]; quantitative PCR
  MDM2 and p21 mRNA levels in tumor tissue: increase of MDM2 mRNA levels; also recorded: increase of p21 mRNA levels
[6]; 8 h after last dose
  p53 pathway protein levels in tumor tissue: increase of MDM2, p53, and p21 protein levels; also recorded: increased intratumoral p53 and p21 protein levels
[6]; quantitative PCR
  MDM2 and p21 mRNA levels in tumor tissue: increase of MDM2 mRNA levels; also recorded: increase of p21 mRNA levels; also recorded: increased MDM2 and p21 mRNA levels
